From patent US20240350402A1, “TOPICAL DRUG TREATMENT TO PREVENT OR REDUCE CORNEAL SCARRING” (The Cleveland Clinic Foundation, priority 2021, published 2024)

Experiments:
[1] = system: corneal neovascularization (CNV); assay: Alkali burn model: central corneal neovascularization (corneal angiography); assay type: in vivo, rabbit; conditions: four corneas in each group, topical six times per day, one month
Method: (§1) Alkali injuries were produced in one eye of rabbits with previously published methods^10 using 1N sodium hydroxide (Sigma, St. Louis, MO) in balanced salt solution (BSS, 0.64% sodium chloride, 0.075% potassium chloride, 0.048% calcium chloride dihydrate, […] magnesium chloride hexahydrate, 0.39% sodium acetate trihydrate, 0.17% sodium citrate dihydrate, pH 7.5, Alcon, H. Worth, TX) and a 5 mm diameter circular Whatman No. 1 filter paper (Cat #1001-6508, Fisher Scientific) wetted with 100 μl of 1N NaOH solution. Following the alkali burn injury, the cornea was irrigated profusely with BSS. Each injured cornea also received one drop of ciprofloxacin (Alcon, Ft. Worth, TX, USA) ten minutes after surgery and four times a day for one week and at least 15 minutes apart from the study medications.
Worth TX), at least 5 minutes apart, or 4) 50 μl of BSS.
All corneas had fluorescent angiography at the peak of dye passage in the cornea immediately after injection of 1.5 ml of 10% sodium fluorescein (McKesson, Irvine, TX) in the central ear vein with the slit lamp system and digital camera system using a “barrier filter” that only transmitted 520-530 nm, the peak of fluorescein emission, with broad illumination of the cornea, as previously described.^11

[2] = system: collagen type IV; assay: Alkali burn model: IHC collagen type IV intensity in anterior and posterior stroma (ImageJ); assay type: in vivo, rabbit; conditions: one month
Method: Worth, TX) and a 5 mm diameter circular Whatman No. 1 filter paper (Cat #1001-6508, Fisher Scientific) wetted with 100 μl of 1N NaOH solution. Following the alkali burn injury, the cornea was irrigated profusely with BSS. Each injured cornea also received one drop of ciprofloxacin (Alcon, Ft. Worth, TX, USA) ten minutes after surgery and four times a day for one week and at least 15 minutes apart from the study medications. […] Worth TX), at least 5 minutes apart, or 4) 50 μl of BSS. Multiplex immunohistochemistry (IHC) was performed using previously described methods^8 and primary antibodies (Table 7) confirmed by western blotting and IHC to recognize rabbit antigens or isotypic control antibodies (Thermo Fisher Scientific, Waltham, MA), and secondary fluorescent tagged antibodies (Table 7). The collagen type IV antibody (Cat. #AB769, Millipore, Temecula CA) was raised against purified human and bovine collagen type IV that had been affinity purified with human and bovine collagen type IV crosslinked to agarose and cross-absorbed by the manufacturer with human and bovine collagens type I, II, III, V and VI to eliminate cross-reactivity. This collagen type IV antibody was shown previously to bind rabbit collagen IV in IHC,^8,9 and recognizes the alpha-1/alpha-2 chains but not the alpha-3 to alpha-6 chains. The keratocan antibody is raised against peptide […]-OH (SEQ ID NO:1). This marker was used to identify keratocytes in situ. […] All corneas in each group had IHC for collagen type IV. Images from each cornea were converted to uniform 300 DPI, 875×568 pixel, files. […] The staining intensity within each box was determined with the analyze histogram function and the mean of three boxes was the intensity value in the anterior or posterior stroma for that cornea.

[3] = system: α-SMA-positive myofibroblasts; assay: Alkali burn model: IHC α-SMA-positive stromal area and intensity (ImageJ); assay type: in vivo, rabbit; conditions: topical six times per day, one month
Method: as §1
Worth TX), at least 5 minutes apart, or 4) 50 μl of BSS. […]
The area of the α-SMA-positive stroma in mm^2 and the total α-SMA opacity in pixels were quantitated using standardized images obtained with a 10× objective on a Leica DM6B upright microscope equipped with an automated stage and Leica 7000 T camera using the LAS X software (Leica Microsystems, GmbH, Wetzlar, Germany). The means of three central corneal sections were analyzed from each cornea to provide the area of α-SMA-positive stroma and the total α-SMA opacity. The area of α-SMA-positive stroma in mm^2 for each cornea was determined from full diameter and thickness central corneal section images (all converted to 300 DPI, 885 width×500 height, files with identical +50% brightness increase in Photoshop for all images) with the ImageJ 1.53a analysis software using the freehand selection tool to delineate the area(s) of α-SMA-positive staining. […] In these same sections for each cornea, the total α-SMA-positive intensity in pixels was also determined with ImageJ, similarly by using the summation if separate α-SMA-positive areas were present. […]

[4] = system: rabbit corneas after alkali burn injury; assay: Alkali burn model: slit lamp opacity area and intensity (ImageJ); assay type: in vivo; conditions: alkali burn 1N NaOH; topical six times per day, one month; 0.8 mg/ml losartan, 1% prednisolone acetate
Method: All animal treatments and care were approved by the Institutional Animal Care and Use Committee (IACUC) at the Cleveland Clinic Foundation (Cleveland, OH, USA) and the Animal Care and Use Review Office of the Department of the Army (Fort Detrick, MD). All rabbits were treated in accordance with the tenets of the ARVO Statement for the Use of Animals in Ophthalmic and Vision Research. Sixteen 10- to 15-week-old female New Zealand White rabbits weighing 2.5 to 3.0 kg each were included in this example. […]
At one month after sodium hydroxide exposure and treatments, with the rabbits under ketamine-xylazine general anesthesia, the eyes were dilated with two drops of 1% tropicamide (Akom Co., Lake Forest, IL) for thirty minutes. […] For each study eye, the total area of opacity was determined by outlining the opacity with the freehand selection tool using ImageJ 1.53a analysis software calibrated to mm^2. The “raw internal density” in pixels for the opacified area in each cornea was also determined using ImageJ. […]

In the case of `CC(=O)OCC(=O)[C@@]1(O)CC[C@H]2[C@@H]3CCC4=CC(=O)C=C[C@]4(C)[C@H]3[C@@H](O)C[C@@]21C` [Prednisolone acetate, prednisolone acetate], the “corneas in which central corneal neovascularization developed” value [1] is reported as “one”, the “mean intensity units of collagen type IV in the anterior stroma compared to vehicle treatment” value [2] is reported as “trend towards a decrease” and the “localization of α-SMA-positive myofibroblasts in the stroma” value [3] is reported as “more variable”. For the same compound, the “total opacity intensity in pixels (ImageJ) vs BSS vehicle group” value [4] was “did not reach statistical significance”.
